# From patent publication US11717508B2, “Compounds, compositions, and methods for inhibiting bacterial growth” (priority 2016, dated 2023)
# Values joined by “and” are separate entries in the source; they are usually repeats but may differ in a detail not shown here. Equal entries are not always repeated. Where two headings read alike, the source gives them in different places.
# What was measured:
# DosRST regulon = format: cell-based; settings: 40 μM, 6 days, >2-fold, p<0.05
# CDC1551(ΔdosR) mutant = format: cell-based; settings: for Counts per million (CPM) / Counts per million (CPM) DosR_HC103A1 / Counts per million (CPM) DosR_HC103A2: DosR mutant treated with HC103A; for Counts per million (CPM): replicates 1, 2; for DosR DMSO/DosR HC103A Fold change / log2 Fold change: DosR mutant; for Counts per million (CPM) DosR_HC103A1: replicate 1; for Counts per million (CPM) DosR_HC103A2: replicate 2
# [1] = gene MT0169 Rv0l60c PE, HC103A vs DMSO
# [2] = gene MT0206 (Rv0196), HC103A compared to DMSO, upregulated
# [3] = gene MT0207 (Rv0197), HC103A compared to DMSO, upregulated
# [4] = gene MT0273 Rv0260c, HC103A vs DMSO
# [5] = gene MT0585 (Rv0559c), HC103A compared to DMSO, upregulated
# [6] = gene MT0586 (Rv0560c), HC103A compared to DMSO, upregulated
# [7] = gene MT0587 (Rv0561c), HC103A compared to DMSO, upregulated
# [8] = gene MT0808 (Rv0784), HC103A compared to DMSO, upregulated
# [9] = gene MT0846 Rv0824c desA1, HC103A vs DMSO
# [10] = gene MT0908 Rv0885, HC103A vs DMSO
# [11] = gene MT0909 Rv0886 fprB, HC103A vs DMSO
# [12] = gene MT1214 Rv1177 fdxC, HC103A vs DMSO
# [13] = gene MT1297 (Rv1258c), HC103A compared to DMSO, upregulated
# [14] = gene MT1430 Rv1386 PE, HC103A vs DMSO
# [15] = gene MT1608 (Rv1557, mmpL6), HC103A compared to DMSO, upregulated
# [16] = gene MT1690 Rv1652 argC, HC103A vs DMSO
# [17] = gene MT1692 Rv1654 argB, HC103A vs DMSO
# [18] = gene MT1694 Rv1656 argF, HC103A vs DMSO
# [19] = gene MT2466, HC103A compared to DMSO, upregulated
# [20] = gene MT2467, HC103A compared to DMSO, upregulated
# [21] = gene MT3110 (Rv3026c), HC103A compared to DMSO, upregulated
# [22] = gene MT3134 Rv3049c, HC103A vs DMSO
# [23] = gene MT3249 (Rv3160c), HC103A compared to DMSO, upregulated
# [24] = gene MT3250 (Rv3161c), HC103A compared to DMSO, upregulated
# [25] = gene MT3591 (Rv3487c, lipF), HC103A compared to DMSO, upregulated
# [26] = gene MT3933 (Rv3825c, pks2), HC103A compared to DMSO, upregulated
structure (smiles),measurement,setting,value
"O=C(Nc1cccc(O)c1)c1cccc(NC(=O)c2cccs2)c1 [HC103A, N-[3-[(3 hydroxyphenyl)carbamoyl]phenyl]thiophene-2-carboxamide]",genes downregulated by compound that are also downregulated in the CDC1551(ΔdosR) mutant,DosRST regulon,76 genes
same,downregulated genes in CDC1551(ΔdosR) mutant treated with compound,"CDC1551(ΔdosR) mutant; 40 μM, 6 days, >2-fold, p<0.05",13 genes
same,Counts per million (CPM),CDC1551(ΔdosR) mutant; gene MT0169 Rv0l60c PE,32.4 CPM and 38.89 CPM
same,DosR DMSO/DosR HC103A Fold change,CDC1551(ΔdosR) mutant; [1],0.4759
same,log2 Fold change,CDC1551(ΔdosR) mutant; [1],−1.071
same,Counts per million (CPM) DosR_HC103A1,CDC1551(ΔdosR) mutant; gene MT0206 (Rv0196),286.4 CPM
same,Counts per million (CPM) DosR_HC103A2,CDC1551(ΔdosR) mutant; gene MT0206 (Rv0196),309 CPM
same,DosR DMSO/DosR HC103A Fold change,CDC1551(ΔdosR) mutant; [2],6.59
same,log2 Fold change,CDC1551(ΔdosR) mutant; [2],2.72
same,Counts per million (CPM) DosR_HC103A1,CDC1551(ΔdosR) mutant; gene MT0207 (Rv0197),509.4 CPM
same,Counts per million (CPM) DosR_HC103A2,CDC1551(ΔdosR) mutant; gene MT0207 (Rv0197),528.3 CPM
same,DosR DMSO/DosR HC103A Fold change,CDC1551(ΔdosR) mutant; [3],4.134
same,log2 Fold change,CDC1551(ΔdosR) mutant; [3],2.047
same,Counts per million (CPM),CDC1551(ΔdosR) mutant; gene MT0273 Rv0260c,19.06 CPM and 17.95 CPM
same,DosR DMSO/DosR HC103A Fold change,CDC1551(ΔdosR) mutant; [4],0.4609
same,log2 Fold change,CDC1551(ΔdosR) mutant; [4],−1.117
same,Counts per million (CPM) DosR_HC103A1,CDC1551(ΔdosR) mutant; gene MT0585 (Rv0559c),"4,246.95 CPM"
same,Counts per million (CPM) DosR_HC103A2,CDC1551(ΔdosR) mutant; gene MT0585 (Rv0559c),"5,318.58 CPM"
same,DosR DMSO/DosR HC103A Fold change,CDC1551(ΔdosR) mutant; [5],5.18
same,log2 Fold change,CDC1551(ΔdosR) mutant; [5],2.373
same,Counts per million (CPM) DosR_HC103A1,CDC1551(ΔdosR) mutant; gene MT0586 (Rv0560c),"8,065.19 CPM"
same,DosR DMSO/DosR HC103A Fold change,CDC1551(ΔdosR) mutant; [6],384.9
same,log2 Fold change,CDC1551(ΔdosR) mutant; [6],8.588
same,Counts per million (CPM) DosR_HC103A1,CDC1551(ΔdosR) mutant; gene MT0587 (Rv0561c),66.91 CPM
same,Counts per million (CPM) DosR_HC103A2,CDC1551(ΔdosR) mutant; gene MT0587 (Rv0561c),74.86 CPM
same,DosR DMSO/DosR HC103A Fold change,CDC1551(ΔdosR) mutant; [7],2.044
same,log2 Fold change,CDC1551(ΔdosR) mutant; [7],1.031
same,Counts per million (CPM) DosR_HC103A1,CDC1551(ΔdosR) mutant; gene MT0808 (Rv0784),242.1 CPM
same,Counts per million (CPM) DosR_HC103A2,CDC1551(ΔdosR) mutant; gene MT0808 (Rv0784),193.9 CPM
same,DosR DMSO/DosR HC103A Fold change,CDC1551(ΔdosR) mutant; [8],2.445
same,log2 Fold change,CDC1551(ΔdosR) mutant; [8],1.29
same,Counts per million (CPM),CDC1551(ΔdosR) mutant; gene MT0846 Rv0824c desA1,"2,264.39 CPM and 5,375.06 CPM"
same,DosR DMSO/DosR HC103A Fold change,CDC1551(ΔdosR) mutant; [9],0.4703
same,log2 Fold change,CDC1551(ΔdosR) mutant; [9],−1.088
same,Counts per million (CPM),CDC1551(ΔdosR) mutant; gene MT0908 Rv0885,"2,165.30 CPM and 1,401.92 CPM"
same,DosR DMSO/DosR HC103A Fold change,CDC1551(ΔdosR) mutant; [10],0.3709
same,log2 Fold change,CDC1551(ΔdosR) mutant; [10],−1.431
same,Counts per million (CPM),CDC1551(ΔdosR) mutant; gene MT0909 Rv0886 fprB,412.7 CPM and 231.2 CPM
same,DosR DMSO/DosR HC103A Fold change,CDC1551(ΔdosR) mutant; [11],0.453
same,log2 Fold change,CDC1551(ΔdosR) mutant; [11],−1.142
same,Counts per million (CPM),CDC1551(ΔdosR) mutant; gene MT1214 Rv1177 fdxC,"704.9 CPM and 1,378.70 CPM"
same,DosR DMSO/DosR HC103A Fold change,CDC1551(ΔdosR) mutant; [12],0.4926
same,log2 Fold change,CDC1551(ΔdosR) mutant; [12],−1.021
same,Counts per million (CPM) DosR_HC103A1,CDC1551(ΔdosR) mutant; gene MT1297 (Rv1258c),106.4 CPM
same,Counts per million (CPM) DosR_HC103A2,CDC1551(ΔdosR) mutant; gene MT1297 (Rv1258c),137 CPM
same,DosR DMSO/DosR HC103A Fold change,CDC1551(ΔdosR) mutant; [13],2.269
same,log2 Fold change,CDC1551(ΔdosR) mutant; [13],1.182
same,Counts per million (CPM),CDC1551(ΔdosR) mutant; gene MT1430 Rv1386 PE,63.3 CPM and 54.49 CPM
same,DosR DMSO/DosR HC103A Fold change,CDC1551(ΔdosR) mutant; [14],0.4765
same,log2 Fold change,CDC1551(ΔdosR) mutant; [14],−1.069
same,Counts per million (CPM) DosR_HC103A1,"CDC1551(ΔdosR) mutant; gene MT1608 (Rv1557, mmpL6)",351.7 CPM
same,Counts per million (CPM) DosR_HC103A2,"CDC1551(ΔdosR) mutant; gene MT1608 (Rv1557, mmpL6)",540 CPM
same,DosR DMSO/DosR HC103A Fold change,CDC1551(ΔdosR) mutant; [15],6.869
same,log2 Fold change,CDC1551(ΔdosR) mutant; [15],2.78
same,Counts per million (CPM),CDC1551(ΔdosR) mutant; gene MT1690 Rv1652 argC,130.6 CPM and 56.84 CPM
same,DosR DMSO/DosR HC103A Fold change,CDC1551(ΔdosR) mutant; [16],0.4979
same,log2 Fold change,CDC1551(ΔdosR) mutant; [16],−1.006
same,Counts per million (CPM),CDC1551(ΔdosR) mutant; gene MT1691,81.47 CPM and 33.33 CPM
same,DosR DMSO/DosR HC103A Fold change,"CDC1551(ΔdosR) mutant; gene MT1691, HC103A vs DMSO",0.4846
same,log2 Fold change,"CDC1551(ΔdosR) mutant; gene MT1691, HC103A vs DMSO",−1.045
same,Counts per million (CPM),CDC1551(ΔdosR) mutant; gene MT1692 Rv1654 argB,128.8 CPM and 55.27 CPM
same,DosR DMSO/DosR HC103A Fold change,CDC1551(ΔdosR) mutant; [17],0.4965
same,log2 Fold change,CDC1551(ΔdosR) mutant; [17],−1.01
same,Counts per million (CPM),CDC1551(ΔdosR) mutant; gene MT1694 Rv1656 argF,79.75 CPM and 39.53 CPM
same,DosR DMSO/DosR HC103A Fold change,CDC1551(ΔdosR) mutant; [18],0.4259
same,log2 Fold change,CDC1551(ΔdosR) mutant; [18],−1.231
same,Counts per million (CPM) DosR_HC103A1,CDC1551(ΔdosR) mutant; gene MT2466,356.4 CPM
same,Counts per million (CPM) DosR_HC103A2,CDC1551(ΔdosR) mutant; gene MT2466,182.6 CPM
same,DosR DMSO/DosR HC103A Fold change,CDC1551(ΔdosR) mutant; [19],2.643
same,log2 Fold change,CDC1551(ΔdosR) mutant; [19],1.402
same,Counts per million (CPM) DosR_HC103A1,CDC1551(ΔdosR) mutant; gene MT2467,57.69 CPM
same,Counts per million (CPM) DosR_HC103A2,CDC1551(ΔdosR) mutant; gene MT2467,12.39 CPM
same,DosR DMSO/DosR HC103A Fold change,CDC1551(ΔdosR) mutant; [20],2.468
same,log2 Fold change,CDC1551(ΔdosR) mutant; [20],1.303
same,Counts per million (CPM) DosR_HC103A1,CDC1551(ΔdosR) mutant; gene MT3110 (Rv3026c),44.13 CPM
same,Counts per million (CPM) DosR_HC103A2,CDC1551(ΔdosR) mutant; gene MT3110 (Rv3026c),30.13 CPM
same,DosR DMSO/DosR HC103A Fold change,CDC1551(ΔdosR) mutant; [21],2.016
same,log2 Fold change,CDC1551(ΔdosR) mutant; [21],1.012
same,Counts per million (CPM),CDC1551(ΔdosR) mutant; gene MT3134 Rv3049c,"1,202.50 CPM and 892.7 CPM"
same,DosR DMSO/DosR HC103A Fold change,CDC1551(ΔdosR) mutant; [22],0.4226
same,log2 Fold change,CDC1551(ΔdosR) mutant; [22],−1.243
same,Counts per million (CPM) DosR_HC103A1,CDC1551(ΔdosR) mutant; gene MT3249 (Rv3160c),172.6 CPM
same,DosR DMSO/DosR HC103A Fold change,CDC1551(ΔdosR) mutant; [23],2.261
same,log2 Fold change,CDC1551(ΔdosR) mutant; [23],1.177
same,Counts per million (CPM) DosR_HC103A1,CDC1551(ΔdosR) mutant; gene MT3250 (Rv3161c),561.8 CPM
same,Counts per million (CPM) DosR_HC103A2,CDC1551(ΔdosR) mutant; gene MT3250 (Rv3161c),555 CPM
same,DosR DMSO/DosR HC103A Fold change,CDC1551(ΔdosR) mutant; [24],2.364
same,log2 Fold change,CDC1551(ΔdosR) mutant; [24],1.241
same,Counts per million (CPM),CDC1551(ΔdosR) mutant; gene MT3573.12,281 CPM and 281.6 CPM
same,DosR DMSO/DosR HC103A Fold change,"CDC1551(ΔdosR) mutant; gene MT3573.12, HC103A vs DMSO",0.4221
same,log2 Fold change,"CDC1551(ΔdosR) mutant; gene MT3573.12, HC103A vs DMSO",−1.244
same,Counts per million (CPM) DosR_HC103A1,"CDC1551(ΔdosR) mutant; gene MT3591 (Rv3487c, lipF)",185.8 CPM
same,Counts per million (CPM) DosR_HC103A2,"CDC1551(ΔdosR) mutant; gene MT3591 (Rv3487c, lipF)",63.03 CPM
same,DosR DMSO/DosR HC103A Fold change,CDC1551(ΔdosR) mutant; [25],2.033
same,log2 Fold change,CDC1551(ΔdosR) mutant; [25],1.023
same,Counts per million (CPM) DosR_HC103A1,"CDC1551(ΔdosR) mutant; gene MT3933 (Rv3825c, pks2)",917.6 CPM
same,Counts per million (CPM) DosR_HC103A2,"CDC1551(ΔdosR) mutant; gene MT3933 (Rv3825c, pks2)",561 CPM
same,DosR DMSO/DosR HC103A Fold change,CDC1551(ΔdosR) mutant; [26],2.341
same,log2 Fold change,CDC1551(ΔdosR) mutant; [26],1.227
